Experimental data: patent US4340725A (priority 1979, dated 1982)
≈ marks a conversion by molar mass, not a printed value.

Experiments:
Solubility of DC-38-V = format: physicochemical
[1] = Stability (solid; acidic, neutral, alkaline liquid; sun light or shielding); format: physicochemical
Source text: The stability of compound is illustrated in Table 1.

[2] = test system: Bacillus subtilis No. 10707; assay: in vitro antibacterial spectra, agar dilution method (pH 7.0); format: cell-based; conditions: read-out: Minimum Inhibitory Concentration (MIC)
Source text: (§1) The in vitro antibacterial spectra of DC-38-V determined by the agar dilution method (pH 7.0) is illustrated in the following Table 7.

Escherichia coli ATCC 26 = assay: as above; format: cell-based; conditions: ATCC26, read-out: Minimum Inhibitory Concentration (MIC)
Source text: as §1

[3] = test system: Klebsiella pneumoniae ATCC 10031; assay: as above; format: cell-based; conditions: ATCC10031, read-out: Minimum Inhibitory Concentration (MIC)
Source text: as §1

[4] = test system: Salmonella typhosa ATCC 9992; assay: as above; format: cell-based; conditions: Salmonella enterica, read-out: Minimum Inhibitory Concentration (MIC)
Source text: as §1

[5] = test system: Shigella sonnei ATCC 9290; assay: as above; format: cell-based; conditions: ATCC9290, read-out: Minimum Inhibitory Concentration (MIC)
Source text: as §1

[6] = test system: Staphylococcus aureus ATCC 6538 P; assay: as above; format: cell-based; conditions: ATCC6538, read-out: Minimum Inhibitory Concentration (MIC)
Source text: as §1

acute toxicity = conditions: mouse, in vivo, ip; mice, intraperitoneally
Procedure: The acute toxicity (LD50) of DC-38-V is >1000 mg/kg when the test compound is administered intraperitoneally to mice.

Sarcoma 180 solid tumor = assay: Effect on sarcoma 180 solid tumor; format: in vivo, ddY-strain mice; conditions: 7 days after implantation
Procedure: Six male ddY-strain mice having a weight of about 20 g are used for each group as test animals; and 5×10^6 cells of Sarcoma 180 ascites tumor are implanted subcutaneously in the animals. After 24 hours following implantation, 0.2 ml phosphate buffered saline (PBS) containing DC-38-V in various concentrations is administered intraperitoneally.
Then the suspension is diluted with PBS to obtain suspensions having various concentrations of test compound.
As a control, PBS solution containing Tween 80 is used. The test animals are not affected by the control solution. PBS comprises 0.8 g/dl NaCl, 0.02 g/dl KCl, […] Na2 HPO4, and 0.02 g/dl KH2 PO4 (pH 7.2).
(§2) For comparison, 0.2 ml PBS solution containing mitomycin C is administered to a group of animals intraperitoneally at the same time as the test compound.
Seven days after implantation, the average tumor volume (mm^3) and T/C (T: average tumor volume of the group treated with the test compound, C: that of control) are determined.

[7] = test system: Lymphocytic leukemia P-388 tumor; assay: Effect on Lymphocytic leukemia P-388 tumor; format: in vivo, CDF1 mice
Procedure: Five male CDF1 mice having a weight of about 22 g are used for each group as test animals; and 1×10^6 cells of Lymphocytic leukemia P-388 tumor are implanted intraperitoneally in the test animals. Twenty-four hours following implantation, 0.2 ml PBS solution containing DC-38-V in various concentrations is administered intraperitoneally.
For comparison, 0.2 ml PBS solution containing mitomycin C is administered to a group of test animals intraperitoneally at the same time as the test compound.

MH 134 ascites tumor = assay: Effect on MH 134 ascites tumor; format: in vivo, C3H-strain mice; conditions: for Long term survivors (LTS): ≥40 days
Procedure: (§3) Six male C3H-strain mice having a weight of about 20 g are used for each group as test animals; and 5×10^6 cells of MH 134 ascites tumor are implanted in the animals intraperitoneally. After 24 hours following implantation, 0.2 ml PBS suspension containing DC-38-V in various concentrations is administered intraperitoneally.
as §2

[8] = test system: Ehrlich ascites carcinoma; assay: Effect on Ehrlich ascites carcinoma; format: in vivo, ddY-strain mice; conditions: for LTS: ≥60 days
Procedure: as §3, with “Five” for “Six”, “ddY-strain” for “C3H-strain”, “Ehrlich” for “MH 134”, “carcinoma” for “tumor”, “following implantation or once a day for five days from 24 hours after” for “following”
For comparison, mitomycin C is used as test compound.

[9] = 25 × 5 mg/kg i.p., once a day for five days
[10] = 50 × 5 mg/kg i.p., once a day for five days
[11] = 100 × 5 mg/kg i.p., once a day for five days

Question: Which Solubility (Solubility of DC-38-V; acetone) does the source give for `C=Cc1cc(OC)c2c(c1)c(=O)oc1c2cc(OC)c2c(O)ccc(C3OC(C(C)O)C(O)C3O)c21` (stereo not shown) [DC-38-V] here?
Answer: slightly soluble

Question: And the Solubility (Solubility of DC-38-V; benzene)?
Answer: slightly soluble

Question: And the Solubility (Solubility of DC-38-V; chloroform)?
Answer: slightly soluble

Question: What about the Solubility (Solubility of DC-38-V; dimethylformamide) of the same molecule?
Answer: soluble

Question: And the Solubility (Solubility of DC-38-V; dimethylsulfoxide)?
Answer: soluble

Question: And the Solubility (Solubility of DC-38-V; ether)?
Answer: almost insoluble

Question: And the Solubility (Solubility of DC-38-V; ethyl acetate)?
Answer: slightly soluble

Question: And the Solubility (Solubility of DC-38-V; methanol)?
Answer: slightly soluble

Question: What about the Solubility (Solubility of DC-38-V; petroleum ether) of the same molecule?
Answer: almost insoluble

Question: And the Solubility (Solubility of DC-38-V; pyridine)?
Answer: soluble

Question: What about the Solubility (Solubility of DC-38-V; tetrahydrofuran) of the same molecule?
Answer: soluble

Question: And the Solubility (Solubility of DC-38-V; water)?
Answer: almost insoluble

Question: And the Stability ([1]; Liquid acidic, shielding)?
Answer: stable

Question: And the Stability ([1]; Liquid alkaline, shielding)?
Answer: unstable

Question: And the Stability ([1]; Liquid alkaline, sun light)?
Answer: unstable

Question: And the Stability ([1]; Liquid neutral, shielding)?
Answer: stable

Question: And the Stability ([1]; Solid, shielding)?
Answer: stable

Question: And the Stability ([1]; Solid, sun light)?
Answer: unstable

Question: What about the MIC [2] of the same molecule?
Answer: 0.0375 µg/mL (≈ 0.0758 µM)

Question: What about the MIC (Escherichia coli ATCC 26) of the same molecule?
Answer: 18.8 µg/mL (≈ 37.9 µM)

Question: What about the MIC [3] of the same molecule?
Answer: > 75 µg/mL

Question: What about the MIC [4] of the same molecule?
Answer: > 75 µg/mL

Question: And the MIC [5]?
Answer: > 75 µg/mL

Question: What about the MIC [6] of the same molecule?
Answer: 0.0375 µg/mL (≈ 0.0758 µM)

Question: And the LD50 (acute toxicity)?
Answer: > 1000 mg/kg

Question: What about the “T/C (average tumor volume)” value (Sarcoma 180 solid tumor; 100 mg/kg i.p.) of the same molecule?
Answer: 0.76

Question: And the “average tumor volume (V)” value (Sarcoma 180 solid tumor; 100 mg/kg i.p.)?
Answer: 1,085 mm^3

Question: And the “T/C (average tumor volume)” value (Sarcoma 180 solid tumor; 200 mg/kg i.p.)?
Answer: 0.62

Question: And the “average tumor volume (V)” value (Sarcoma 180 solid tumor; 200 mg/kg i.p.)?
Answer: 874 mm^3

Question: What about the “T/C (average tumor volume)” value (Sarcoma 180 solid tumor; 400 mg/kg i.p.) of the same molecule?
Answer: 0.40

Question: And the “average tumor volume (V)” value (Sarcoma 180 solid tumor; 400 mg/kg i.p.)?
Answer: 562 mm^3

Question: What about the “increased life span (ILS)” value ([7]; 50 mg/kg i.p.) of the same molecule?
Answer: 138%

Question: What about the “mean survival time (MST)” value ([7]; 50 mg/kg i.p.) of the same molecule?
Answer: 13.4 days

Question: And the “increased life span (ILS)” value ([7]; 100 mg/kg i.p.)?
Answer: 141%

Question: And the “mean survival time (MST)” value ([7]; 100 mg/kg i.p.)?
Answer: 14.5 days

Question: And the “increased life span (ILS)” value ([7]; 200 mg/kg i.p.)?
Answer: 155%

Question: And the “mean survival time (MST)” value ([7]; 200 mg/kg i.p.)?
Answer: 16.0 days

Question: What about the “increased life span (ILS)” value ([7]; 400 mg/kg i.p.) of the same molecule?
Answer: 162%

Question: What about the “mean survival time (MST)” value ([7]; 400 mg/kg i.p.) of the same molecule?
Answer: 16.7 days

Question: What about the ILS (MH 134 ascites tumor; 100 mg/kg i.p.) of the same molecule?
Answer: > 184%

Question: And the MST (MH 134 ascites tumor; 100 mg/kg i.p.)?
Answer: > 31.5 days

Question: And the “Long term survivors (LTS)” value (MH 134 ascites tumor; 100 mg/kg i.p.)?
Answer: 3/6

Question: What about the ILS (MH 134 ascites tumor; 200 mg/kg i.p.) of the same molecule?
Answer: > 310%

Question: And the MST (MH 134 ascites tumor; 200 mg/kg i.p.)?
Answer: > 53.0 days

Question: And the “Long term survivors (LTS)” value (MH 134 ascites tumor; 200 mg/kg i.p.)?
Answer: 6/6

Question: And the ILS (MH 134 ascites tumor; 400 mg/kg i.p.)?
Answer: > 231%

Question: What about the MST (MH 134 ascites tumor; 400 mg/kg i.p.) of the same molecule?
Answer: > 39.5 days

Question: What about the “Long term survivors (LTS)” value (MH 134 ascites tumor; 400 mg/kg i.p.) of the same molecule?
Answer: 2/6

Question: And the ILS [8, 9]?
Answer: > 315%

Question: And the MST [8, 9]?
Answer: > 49.8 days

Question: And the LTS [8, 9]?
Answer: 3/5

Question: And the ILS ([8]; 50 × 1 mg/kg i.p.)?
Answer: 114%

Question: And the MST ([8]; 50 × 1 mg/kg i.p.)?
Answer: 17.4 days

Question: And the LTS ([8]; 50 × 1 mg/kg i.p.)?
Answer: 0/5

Question: What about the ILS [8, 10] of the same molecule?
Answer: > 358%

Question: And the MST [8, 10]?
Answer: > 56.6 days

Question: What about the LTS [8, 10] of the same molecule?
Answer: 4/5

Question: And the ILS ([8]; 100 × 1 mg/kg i.p.)?
Answer: > 202%

Question: And the MST ([8]; 100 × 1 mg/kg i.p.)?
Answer: > 30.6 days

Question: What about the LTS ([8]; 100 × 1 mg/kg i.p.) of the same molecule?
Answer: 1/5

Question: What about the ILS [8, 11] of the same molecule?
Answer: > 380%

Question: And the MST [8, 11]?
Answer: > 60 days

Question: And the LTS [8, 11]?
Answer: 5/5

Question: What about the ILS ([8]; 200 × 1 mg/kg i.p.) of the same molecule?
Answer: > 264%

Question: What about the MST ([8]; 200 × 1 mg/kg i.p.) of the same molecule?
Answer: > 40.2 days

Question: And the LTS ([8]; 200 × 1 mg/kg i.p.)?
Answer: 2/5

Question: What about the ILS ([8]; 400 × 1 mg/kg i.p.) of the same molecule?
Answer: > 275%

Question: And the MST ([8]; 400 × 1 mg/kg i.p.)?
Answer: > 41.8 days

Question: What about the LTS ([8]; 400 × 1 mg/kg i.p.) of the same molecule?
Answer: 2/5

Question: With `CO[C@@]12[C@H](COC(N)=O)C3=C(C(=O)C(C)=C(N)C3=O)N1C[C@@H]1N[C@@H]12` [Mitomycin C, mitomycin C, reference compound] as the molecule, how does the “T/C (average tumor volume)” value (Sarcoma 180 solid tumor; 4.2 mg/kg i.p.) read?
Answer: 0.37

Question: What about the “average tumor volume (V)” value (Sarcoma 180 solid tumor; 4.2 mg/kg i.p.) of the same molecule?
Answer: 529 mm^3

Question: And the “increased life span (ILS)” value ([7]; 4.2 mg/kg i.p.)?
Answer: 160%

Question: And the “mean survival time (MST)” value ([7]; 4.2 mg/kg i.p.)?
Answer: 16.5 days

Question: And the ILS (MH 134 ascites tumor; 1.05 mg/kg i.p.)?
Answer: 106%

Question: What about the MST (MH 134 ascites tumor; 1.05 mg/kg i.p.) of the same molecule?
Answer: 18.1 days

Question: And the “Long term survivors (LTS)” value (MH 134 ascites tumor; 1.05 mg/kg i.p.)?
Answer: 0/6

Question: And the ILS (MH 134 ascites tumor; 2.1 mg/kg i.p.)?
Answer: 116%

Question: And the MST (MH 134 ascites tumor; 2.1 mg/kg i.p.)?
Answer: 19.8 days

Question: What about the “Long term survivors (LTS)” value (MH 134 ascites tumor; 2.1 mg/kg i.p.) of the same molecule?
Answer: 0/6

Question: What about the ILS (MH 134 ascites tumor; 4.2 mg/kg i.p.) of the same molecule?
Answer: 120%

Question: And the MST (MH 134 ascites tumor; 4.2 mg/kg i.p.)?
Answer: 20.5 days

Question: And the “Long term survivors (LTS)” value (MH 134 ascites tumor; 4.2 mg/kg i.p.)?
Answer: 0/6

Question: And the ILS (MH 134 ascites tumor; 8.4 mg/kg i.p.)?
Answer: 55%

Question: And the MST (MH 134 ascites tumor; 8.4 mg/kg i.p.)?
Answer: 9.4 days

Question: What about the “Long term survivors (LTS)” value (MH 134 ascites tumor; 8.4 mg/kg i.p.) of the same molecule?
Answer: 0/6

Question: What about the ILS ([8]; 2.1 × 1 mg/kg) of the same molecule?
Answer: 122%

Question: And the MST ([8]; 2.1 × 1 mg/kg)?
Answer: 18.6 days

Question: And the LTS ([8]; 2.1 × 1 mg/kg)?
Answer: 0/5

Question: What about the ILS ([8]; 4.2 × 1 mg/kg) of the same molecule?
Answer: > 203%

Question: And the MST ([8]; 4.2 × 1 mg/kg)?
Answer: > 30.8 days

Question: What about the LTS ([8]; 4.2 × 1 mg/kg) of the same molecule?
Answer: 1/5

Question: And the ILS ([8]; 5.6 × 1 mg/kg)?
Answer: 122%

Question: What about the MST ([8]; 5.6 × 1 mg/kg) of the same molecule?
Answer: 18.6 days

Question: And the LTS ([8]; 5.6 × 1 mg/kg)?
Answer: 0/5
